In patent publication US4259257A, “1-Phenyl-2-amino-1,3-propanediol-N-aryloxyalkyl derivatives” (Egyt Gyogyszervegyeszeti Gyar, priority 1977, dated 1981):
Where a name gives a salt, the structure may show the parent alone. Read-outs that look alike come from different tables or passages of the source.

Legend:
[1] = Acute oral toxicity on mice (CFLP strain), 96 h observation; conditions: mouse, in vivo
Description: Toxicity (per os) has been determined on mice (CFLP strain) of both sexes weighing about 20 to 25 g. each, 10 mice were used for each doses and the time of observation was 96 hours.

[2] = tested on: coronary insufficiency induced with glanduitrine in male rats (CFY strain); experiment: Anti-anginose activity by the method of Nieschulz, coronary insufficiency induced with glanduitrine; format: in vivo; conditions: for Relative efficiency (relative anti-anginose activity): inhibition caused by Prenilamine=1; for Anti-anginose effect (inhibition %): rats, test dose 10.0 mg./kg. (compound 1), 2.0 mg./kg. (2, 3, Prenilamine), 4.0 mg./kg. (5, Lidocaine)
Description: Anti-anginose activity of the compounds according to the invention was tested on male rats from the CFY strain by the method of Nieschulz (Nieschulz, E. et al., Arzneimittelforschung, 5, 680/1955/). The rats weighed about 180 to 220 g. each and were narcotized prior to treatment. Electrocardiograms were registered by means of a NEK-2 ECG-instrument using a standard II output. The coronary insufficiency was induced with a 4 IE/kg. i.v. dose of glanduitrine. Prenilamine was used as a reference compound.
The acute intravenous toxicity was determined on rats of both sexes, using five animals for each doses. The relative anti-anginose activity was calculated on the basis of the following equation: [formula] Test results are shown in Table 3 below (inhibition caused by Prenilamine=1).

in vivo = conditions: rat, iv, read-out: LD50-value (acute intravenous toxicity)
Description: The acute intravenous toxicity was determined on rats of both sexes, using five animals for each doses. The relative anti-anginose activity was calculated on the basis of the following equation: [formula]

N. ischiadicus of rats = experiment: Local anaesthetic activity by the method of Truant and d'Amato; format: in vivo; conditions: for Local anaesthetic activity EC50: N. ischiadicus of rats, motor-paralysis; for Local anaesthetic activity, relative efficiency: related to Lidocaine (1.0)
Description: The local anaesthetic activity was tested by the method of Truant and d'Amato (Truant, A. P. and Wiedling, S., Acta Chirurg. Scand. 116, 351/1958) on the N. ischiadicus of rats. The number of the animals showing the signs of characteristic motor-paralysis was recorded. As a control compound Lidocaine was used. This test can be carried out with water-soluble substances only.

isolated rat ileums = experiment: Smooth muscle relaxing activity by the method of Brock et al. on isolated rat ileums; conditions: for Smooth muscle relaxant activity EC50: isolated rat ileums; for Smooth muscle relaxant activity, relative efficiency: related to Papaverine (1.0)
Excerpt: For the determination of smooth muscle relaxing activity the method of Brock et al. (Brock, N, et al., Arch. Exper. Pathol. u. Pharmacol., 215, 492/1952/) was used on isolated rat ileums. Papaverine was used as reference compound. In Table 4 below the EC50 -values and the relative efficiencies calculated on the basis of the following equation are also listed: [formula]

SMILES | LD50 at 96 h [1] | Relative efficiency (relative anti-anginose activity) [2] | Anti-anginose effect (inhibition %) [2] | LD50 (in vivo) | Local anaesthetic activity EC50 (N. ischiadicus of rats) | Local anaesthetic activity, relative efficiency (N. ischiadicus of rats) | Smooth muscle relaxant activity EC50 (isolated rat ileums) | Smooth muscle relaxant activity, relative efficiency (isolated rat ileums) | LD50 (in vivo; rats, i.v.)
CC(COc1ccccc1)N[C@@H](CO)[C@@H](O)c1ccccc1 (relative stereo) [Compound 2, Threo + allothreo-1-phenyl-2-phenoxy-isopropylamino-1,3-propanediol fumarate] | 200 mg/kg | 1.3 | 56% | 11 mg/kg | 0.12 µg/mL | 1.58 | 17.57 µg/mL | 0.50 | 
CC(COc1ccccc1)N[C@@H](CO)[C@@H](O)c1ccccc1 (single isomer, unassigned; (+)) [Compound 3, (+) (Threo + allothreo)-1-phenyl-2-phenoxy-isopropylamino-1,3-propanediol fumarate] | 350 mg/kg | 3.0 | 67% | 21.5 mg/kg | 0.20 µg/mL | 0.95 | 8.50 µg/mL | 1.03 | 
CC(COc1ccccc1)N[C@H](CO)[C@H](O)c1ccccc1 (single isomer, unassigned; (-)) [Compound 4, (-) (Threo + allothreo)-1-phenyl-2-phenoxy-isopropylamino-1,3-propanediol fumarate] | 275 mg/kg |  |  |  | 0.28 µg/mL | 0.68 | 10.78 µg/mL | 0.80 | 
CC(C)N[C@@H](CO)[C@@H](O)c1ccccc1 [Compound 1, L (+) threo-1-phenyl-2-isopropylamino-1,3-propanediol] | 710 mg/kg | 3.0 | 50% | 140 mg/kg |  |  |  |  | 
CC(COc1ccccc1)N[C@@H](CO)[C@H](O)c1ccccc1 (stereo partly drawn) [Compound 5, Erythro+alloerythro-1-phenyl-2-phenoxyisopropylamino-1,3-propanediol fumarate] | 2000 mg/kg | 3.0 | 64% | 45 mg/kg |  |  |  |  | 
CCN(CC)CC(=O)Nc1c(C)cccc1C [Lidocaine, reference compound] |  |  | 39% |  | 0.19 µg/mL |  |  |  | 
COc1ccc(Cc2nccc3cc(OC)c(OC)cc23)cc1OC [Papaverine, reference compound] |  |  |  |  |  |  | 8.78 µg/mL | 1.0 | 
CC(Cc1ccccc1)NCCC(c1ccccc1)c1ccccc1 (stereo not drawn) [Prenilamine, 3,3-diphenylpropyl-1-methylphenethylamine, reference compound] |  | 1.0 | 41% |  |  |  |  |  | 11.5 mg/kg
